From US5576318A, “Benzimidazolone derivatives” (Boehringer Ingelheim Italia S.p.A., priority 1991, dated 1996)

How the values were obtained:
[1] = biological target: T1, 5-HT1A receptor (Rattus norvegicus, UniProt P19327); assay: 5-HT1A receptor binding ([3H]-8-OH-DPAT displacement, rat hippocampi); design: species or system rat (male Sprague Dawley); settings: 30° C. for 15 min, read-out: AFFINITY FOR 5-HT1A RECEPTORS Ki
T1 construct: The Hippocampi of these animals were homogenized in 10 volumes of ice cold TRIS buffer; from tissue; host or cells: hippocampus of male Sprague Dawley rats, homogenate
T1 sequence (P19327 1-422): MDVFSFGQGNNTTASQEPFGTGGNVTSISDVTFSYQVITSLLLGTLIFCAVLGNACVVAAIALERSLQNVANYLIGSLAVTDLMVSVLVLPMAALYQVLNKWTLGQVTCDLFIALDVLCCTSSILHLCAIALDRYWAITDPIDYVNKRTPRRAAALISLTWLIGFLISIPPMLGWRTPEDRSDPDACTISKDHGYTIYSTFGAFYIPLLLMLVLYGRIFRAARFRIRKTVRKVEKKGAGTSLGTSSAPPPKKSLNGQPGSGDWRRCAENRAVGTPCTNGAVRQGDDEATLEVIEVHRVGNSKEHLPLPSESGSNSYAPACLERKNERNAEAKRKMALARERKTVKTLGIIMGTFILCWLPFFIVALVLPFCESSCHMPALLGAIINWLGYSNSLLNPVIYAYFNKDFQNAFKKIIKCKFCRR
Procedure: Rats (male Sprague Dawley, 200-250 g) were used. The Hippocampi of these animals were homogenized in 10 volumes of ice cold TRIS buffer (pH 7.4). The homogenate was diluted 1:400 (w:v) in the same buffer to have a final protein concentration of about 200 μg/mL, filtered and incubated at 37° C. for 10 min, before use.
Displacement experiments were performed by incubating the homogenate (980 μL) in the presence of [^3 H]-80H-DPAT (1.0-1,5 nM) (10 μL) and of different concentrations of the test compounds dissolved in the test buffer (10 μL), at 30° C. for 15 min (final volume: 1 mL).
Non specific binding was determined in the presence of 100 μM 5-HT (10 μL). The separation of [^3 H]-8-OH-DPAT, free from that bound to the receptor, was carried out by the filtration technique (GF/B filters, Whatman). The radioactivity present was counted by liquid scintillation spectrometry.
(§1) The affinity values (Ki) for the compounds were obtained by a non linear least squares regression analysis on the basis of a one binding site model. The values were corrected on the basis of the radioligand occupancy on the receptors according to the equation: Ki=IC50 /(1+[C]/KD),where [C] and KD represent the concentration and the dissociation constant, respectively, of the radioligand used ([^3 H]-8-OH-DPAT).

[2] = biological target: T2, 5-HT2 receptor (Rattus norvegicus, UniProt P14842); assay: 5-HT2 receptor binding ([3H]-Ketanserine displacement, rat cerebral cortices); design: species or system rat (male Sprague Dawley); settings: 37° C. for 10 min, read-out: AFFINITY FOR 5-HT2 RECEPTORS Ki
T2 construct: Cerebral cortices were homogenized in 10 volumes of ice cold 0.32M sucrose; from tissue; host or cells: cerebral cortex of male Sprague Dawley rats, membranes
Procedure: Receptor binding studies on 5-HT1A and 5-HT2 receptors were carried out to determine the affinity of the test compounds.
Rats (male Sprague Dawley, 200-250 g) were used. Cerebral cortices were homogenized in 10 volumes of ice cold 0.32M sucrose. After the centrifugation of the homogenate (1,000×g for 10 min) the supernatant was then recentrifuged at 48,000×g for 15 min. The resulting pellet was resuspended in 10 volumes of 50 mM TRIS buffer (pH 7.4), incubated at 37° C. for 10 min and recentrifuged at 48,000×g for 15 min. The residue was then resuspended in 10 volumes of 50 mM TRIS buffer (pH 7.4).
The tissue was diluted 1:100 (w:v) in 50 mM TRIS buffer (pH 7.4) to have a final protein concentration of about 200 μg/mL.
Displacement experiments were performed by incubating the homogenate (980 μL) in the presence of [^3 H]-Ketanserine (0.5-1.0 nM) (10 μL) and of different concentrations of the test compounds dissolved in the assay buffer (10 μL), at 37° C. for 10 min (final volume: 1 mL).
Non specific binding was determined in the presence of 100 μM Methysergide (10 μL). The separation of [^3 H]-Ketanserine free from that bound to the receptor was carried by the filtration technique (GF/B filters, Whatman). The radioactivity present was counted by liquid scintillation spectrometry.
as §1, with “by” for “by a”, “model. These” for “model. The”, “Ki=IC50 /(1+[C]/KD), where” for “Ki=IC50 /(1+[C]/KD),where”, “([^3 H]-Ketanserine).” for “([^3 H]-8-OH-DPAT).”
The results of some of the compounds of the present invention on the affinity to the 5-HT1A and 5-HT2 receptors are reported in Table 1.

[3] = system: 5-HT1A receptors; assay: Behavioral syndrome: induction of 5-HT1A related syndrome; type: in vivo, rat; design: key: sum of symptom scores per rat within 50 min; settings: within 50 min, mean ± s.e. from 4 rats
Procedure: The test consists of administering the compound and registering the presence of the above mentioned symptoms within 50 min giving them a score. The results are expressed as the sum of said scores for each rat (Tab. 2).
Values represent mean± s.e. from 4 rats

[4] = system: 5-HT2 receptors; assay: Antagonism of quipazine-induced head twitches; type: in vivo; settings: ip; head twitches scored within 20 minutes in quipazine-treated animals

T2 sequence (P14842 whole entry): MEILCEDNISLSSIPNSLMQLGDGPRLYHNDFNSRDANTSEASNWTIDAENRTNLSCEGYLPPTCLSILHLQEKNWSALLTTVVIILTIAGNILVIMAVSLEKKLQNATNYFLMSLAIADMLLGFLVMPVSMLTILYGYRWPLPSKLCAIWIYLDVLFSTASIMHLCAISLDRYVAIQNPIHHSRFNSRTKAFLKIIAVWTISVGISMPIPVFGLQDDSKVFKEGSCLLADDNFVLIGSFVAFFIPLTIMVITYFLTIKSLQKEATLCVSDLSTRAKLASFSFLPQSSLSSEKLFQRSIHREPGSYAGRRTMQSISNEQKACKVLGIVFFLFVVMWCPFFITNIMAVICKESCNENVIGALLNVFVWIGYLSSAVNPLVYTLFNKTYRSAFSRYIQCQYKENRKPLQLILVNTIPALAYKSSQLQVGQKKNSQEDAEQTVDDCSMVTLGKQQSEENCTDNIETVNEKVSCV

| SMILES | Ki [1] [µM] | Ki [2] [µM] | INDUCTION OF 5-HT1A RELATED SYNDROME Total score ([3]; dose 8 mg/kg/ip) | DOSE OF COMPOUND (ID50) WHICH ANTAGONIZES THE SYNDROME INDUCED BY QUIPAZINE [4] [μg/kg/ip] | INDUCTION OF 5-HT1A RELATED SYNDROME Total score ([3]; dose 32 mg/kg/ip) | INDUCTION OF 5-HT1A RELATED SYNDROME Total score ([3]; dose 16 mg/kg/ip) |
| --- | --- | --- | --- | --- | --- | --- |
| COc1ccc2[nH]c(=O)n(CCCCN3CCN(c4ccccc4OC)CC3)c2c1 [Compound 24, 6-methoxy-1-[4-(4-(2-methoxyphenyl)piperazin-1-yl)butyl]-2,3-dihydro-1H-benzimidazol-2-one] | 0.012 | 0.065 | 4.3 ± 1.1 | 102 | – | – |
| COc1ccccc1N1CCN(CCCn2c(=O)[nH]c3ccccc32)CC1 [Compound 10, 1-[3-(4-(2-methoxyphenyl)piperazin-1-yl)propyl]-2,3-dihydro-1H-benzimidazol-2-one] | 0.005 | 0.03 | 3.0 ± 0.4 | 3300 | – | – |
| Cn1c(=O)n(CCCCN2CCN(c3cccc(Cl)c3)CC2)c2ccccc21 [Compound 17, 1-[4-(4-(3-chlorophenyl)piperazin-1-yl)butyl]-3-methyl-2,3-dihydro-1H-benzimidazol-2-one] | 0.03 | 0.008 | 1.5 ± 0.7 | 178 | 10.3 ± 2.9 | – |
| O=c1[nH]c2ccccc2n1CCCCN1CCN(c2cccc(Cl)c2)CC1 [Compound 4, 1-[4-(4-(3-chlorophenyl)piperazin-1-yl)butyl]-2,3-dihydro-1H-benzimidazol-2-one] | 0.074 | 0.0014 | 0.8 ± 0.5 | 250 | – | 3.3 ± 1.0 |
| O=c1[nH]c2ccccc2n1CCCCN1CCN(c2cccc(C(F)(F)F)c2)CC1 [Compound 8, 1-[4-(4-(3-trifluoromethyl-phenyl)piperazin-1-yl)butyl]-2,3-dihydro-1H -benzimidazol-2-one] | 0.053 | 0.0095 | 3.0 ± 2.7 | 385 | – | – |
| O=c1[nH]c2ccccc2n1CCN1CCN(c2cccc(C(F)(F)F)c2)CC1 [Compound 3, 1-[2-(4-(3-trifluoromethyl-phenyl)piperazin-1-yl)ethyl]-2,3-dihydro-1H-benzimidazol-2-one] | 0.05 | 0.133 | – | 498 | – | 5.3 ± 1.2 |
| Cn1c(=O)n(CCCCN2CCN(c3cccc(C(F)(F)F)c3)CC2)c2ccccc21 [Compound 9, 1-[4-(4-(3-trifluoromethyl-phenyl)piperazin-1-yl)butyl]-3-methyl-2,3-dihydro-1H-benzimidazol-2-one] | 0.023 | 0.014 | 2.0 ± 0.6 | 1720 | – | – |
| CCn1c(=O)n(CCCCCCN2CCN(c3cccc(C(F)(F)F)c3)CC2)c2ccccc21 [Compound 13, 1-[6-(4-(3-trifluoromethyl-phenyl)piperazin-1-yl)hexyl]-3-ethyl-2,3-dihydro-1H-benzimidazol-2-one] | 0.015 | 0.015 | – | 8200 | 3.8 ± 1.3 | – |
| COc1ccccc1N1CCN(CCCCn2c(=O)[nH]c3ccccc32)CC1 [Compound 1, 1-[4-(4-(2-methoxy-phenyl)piperazin-1-yl)butyl]-2,3-dihydro-1H-benzimidazol-2-one] | 0.013 | 0.036 | 7.3 ± 0.9 | 720 | – | – |
| COc1ccc2[nH]c(=O)n(CCCCN3CCN(c4cccc(C(F)(F)F)c4)CC3)c2c1 [Compound 25, 6-methoxy-1-[4-(4-(3-trifluoromethyl-phenyl)piperazin-1-yl)butyl]-2,3-dihydro-1H-benzimidazol-2-one] | 0.1 | 0.025 | 2.0 ± 1.2 | 1420 | – | – |
| O=c1[nH]c2ccccc2n1CCCCN1CCN(c2cccc3ccccc23)CC1 [Compound 30, 1-[4-(4-(1-naphtyl)piperazin-1-yl)butyl]-2,3-dihydro-1H-benzimidazol-2-one] | 0.01 | 0.007 | – | – | – | – |
| CC(C)n1c(=O)n(CCCCN2CCN(c3cccc(C(F)(F)F)c3)CC2)c2ccccc21 [Compound 15, 1-[4-(4-(3-trifluoromethyl-phenyl)piperazin-1-yl)butyl]-3-isopropyl-2,3-dihydro-1H-benzimidazol-2-one] | 0.08 | 0.02 | – | – | – | – |
| O=c1[nH]c2ccccc2n1CCCN1CCN(c2cccc(C(F)(F)F)c2)CC1 [Compound 18, 1-[3-(4-(3-trifluoromethyl-phenyl)piperazin-1-yl)propyl]-2,3-dihydro-1H-benzimidazol-2-one] | 0.025 | 0.004 | – | 170 | 12.0 ± 3.2 | 3.8 ± 2.2 |
